Measurements taken from patent publication US20250115582A1, “MOLECULAR GLUE DEGRADERS AND METHODS OF USING THE SAME” (Monte Rosa Therapeutics, Inc., priority 2022, published 2025).

What was measured:
Type in all cases: cell-based
CK1α = molecular target: T1, CK1α (Homo sapiens, UniProt P48729+Q96SW2); assay: CK1α NanoBiT assay (HiBiT-tagged CSNK1A1 in HEK293 clonal line); settings: HEK293 HiBiT-CSNK1A1/LgBiT cells, 24 h incubation, luminescence
T1 construct: HEK293 clonal line with CRISPR KI HiBiT tag on CSNK1A1; host or cells: HEK293 clonal line, CRISPR HiBiT knock-in at CSNK1A1, stably expressing LgBiT
How it was run: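 HiBiT knock-in CSNK1A1 HEK293 cells stably expressing LgBiT were plated at 5000 cells/well in DMEM/10% FBS with 0.2% Endurazine live-cell substrate and pre-incubated 16 h. Compound was added to a final […] for 24 h at 37 °C before the luminescence read. Signal was normalised to plate controls, and DC50 came from a 3-parameter logistic fit (hillslope 1).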

CK1a = molecular target: T2, CK1a (Homo sapiens, UniProt P48729+Q96SW2); assay: Western blot assay of CK1a levels in HEK293 and HEK293 CRBN knock-out cells; settings: 0.1, 1, 10 μM, 24 hours
T2 construct: host or cells: HEK293 and HEK293 CRBN knock-out clone B2 (generated internally)
Procedure: FIG. 1 depicts effects of Compound 147 on CK1a levels in an HEK293 cell line in comparison to effects of Compound 147 on CK1a levels in a cereblon (CRBN) knock-out HEK293 cell line.
HEK293 cell line was purchased from ATCC (CRL-1573). HEK293 CRBN knock out (k/o) cell line (B2) was generated internally using CRISPR/Cas9 method and clonally expanded. Cells were plated at 2×10^5 cells per well in 6-well tissue culture plates (VWR) in 2 ml of DMEM media (Gibco) containing 10% FBS (Gibco), and incubated for 16 hours at 37° C., 5% CO2. Compounds were added to final concentration of 0.1 μM, 1 μM, 10 μM (DMSO concentration was kept constant at 0.1%), following incubation at 37° C., 5% CO2 for additional 24 hours. Cell lysis was performed using RIPA buffer (Pierce) containing Halt™ Protease Inhibitor Cocktail (ThermoFisher Scientific). Lysates were boiled at 95° C. for 10 minutes and 12 μg of protein lysate per sample was resolved by SDS-PAGE using 12% gels (BioRad) and transferred to nitrocellulose membrane (BioRad). Membranes were blocked using LI-COR blocking buffer (LI-COR) at room temperature for 1 hour, followed by overnight incubation with rabbit anti-CK1a (Abcam ab206652), rabbit anti-CRBN (Sigma HPA045910) and mouse anti-α-tubulin (Sigma T9026) antibodies at 4° C. […]

SKCO1 = assay: GI50 growth inhibition, CyQUANT, SKCO1; settings: Homo sapiens, SK-CO-1, SKCO1 cells, 120 to 168 hours
Procedure: (§1) SKCO1, LS180, and LS174T cell lines were purchased from ATCC. CW2 cell line was purchased from Riken. GP2D cell line was purchased from Sigma/ECACC. All cell lines were cultured in manufacturer's recommended media at 37° C., 5% CO2. Briefly, cells were suspended in 200 μL of media and seeded at 300 to 1,800 cells per well in tissue culture treated 96-well plates with black walls and clear bottom. Plates were incubated overnight and initial (T0) read was performed the following day using CyQUANT Direct Cell Proliferation Assay Kit (Thermo Fisher Scientific) according to manufacturer's protocol. All compounds were solubilized in DMSO and prepared at 3-fold serial dilution, using 9 points starting at 30 μM as highest concentration, administered to cells and incubated for 120 to 168 hours, at which point CyQUANT assay measurement was performed using Acumen Cellista instrument (Ex/Em 480/520 nm). Media-only wells were used as blank, and 0.3% DMSO was used as DMSO-treated cell control. Growth inhibition (percent response) was calculated using the following formula in Excel: “=if ([Compound treated Day N]>[Untreated Day 0, AVG], ([Compound treated Day N]−[Untreated Day 0, AVG])/([Untreated Day N]−[Untreated Day 0, AVG])*100, ([Compound Treated Day N]−[Untreated Day 0, AVG])/([Untreated Day 0, AVG])*100)”. GI50 is the response corresponding to the 50% of untreated control.
(§2) GI50 data are reported in Tables 4a, 4b, 4c, 4d, and 4e for compounds in Table 1. In Tables 4a, 4b, 4c, 4d, and 4e below, According to the code, A represents a GI50 value of ≤0.1 μM, B represents a GI50 value>0.1 μM and ≤1 μM, C represents an GI50 value>1 μM.

GP2D = assay: GI50 growth inhibition, CyQUANT, GP2D; settings: GP2D cells, 120 to 168 hours
Procedure: as §1, §2

LS174T = assay: GI50 growth inhibition, CyQUANT, LS174T; settings: Homo sapiens, LS174T cells, 120 to 168 hours
Procedure: as §1, §2

T1 sequence (P48729 whole entry): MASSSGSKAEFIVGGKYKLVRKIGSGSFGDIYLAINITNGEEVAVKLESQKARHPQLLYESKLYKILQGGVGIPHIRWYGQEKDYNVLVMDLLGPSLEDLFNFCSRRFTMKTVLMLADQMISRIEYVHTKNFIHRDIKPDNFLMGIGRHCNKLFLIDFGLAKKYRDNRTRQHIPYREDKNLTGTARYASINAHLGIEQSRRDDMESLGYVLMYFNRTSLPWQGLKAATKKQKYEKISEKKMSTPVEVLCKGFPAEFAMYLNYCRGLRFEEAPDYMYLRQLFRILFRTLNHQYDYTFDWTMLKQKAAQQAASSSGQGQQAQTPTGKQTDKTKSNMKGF
T1 sequence (Q96SW2 whole entry): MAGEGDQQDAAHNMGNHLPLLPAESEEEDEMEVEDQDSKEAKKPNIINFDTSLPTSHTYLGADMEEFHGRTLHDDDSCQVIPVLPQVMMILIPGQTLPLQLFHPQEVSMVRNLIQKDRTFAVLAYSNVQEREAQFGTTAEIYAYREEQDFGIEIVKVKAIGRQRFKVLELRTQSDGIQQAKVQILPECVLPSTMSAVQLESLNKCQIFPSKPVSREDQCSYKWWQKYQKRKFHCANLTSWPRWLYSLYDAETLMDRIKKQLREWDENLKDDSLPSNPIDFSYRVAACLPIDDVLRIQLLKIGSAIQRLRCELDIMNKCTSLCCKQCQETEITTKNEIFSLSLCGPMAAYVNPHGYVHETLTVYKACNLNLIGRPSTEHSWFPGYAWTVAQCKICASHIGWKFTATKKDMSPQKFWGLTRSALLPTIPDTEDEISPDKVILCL
T1 sequence (Q16531 2-1140 partner limits assumed): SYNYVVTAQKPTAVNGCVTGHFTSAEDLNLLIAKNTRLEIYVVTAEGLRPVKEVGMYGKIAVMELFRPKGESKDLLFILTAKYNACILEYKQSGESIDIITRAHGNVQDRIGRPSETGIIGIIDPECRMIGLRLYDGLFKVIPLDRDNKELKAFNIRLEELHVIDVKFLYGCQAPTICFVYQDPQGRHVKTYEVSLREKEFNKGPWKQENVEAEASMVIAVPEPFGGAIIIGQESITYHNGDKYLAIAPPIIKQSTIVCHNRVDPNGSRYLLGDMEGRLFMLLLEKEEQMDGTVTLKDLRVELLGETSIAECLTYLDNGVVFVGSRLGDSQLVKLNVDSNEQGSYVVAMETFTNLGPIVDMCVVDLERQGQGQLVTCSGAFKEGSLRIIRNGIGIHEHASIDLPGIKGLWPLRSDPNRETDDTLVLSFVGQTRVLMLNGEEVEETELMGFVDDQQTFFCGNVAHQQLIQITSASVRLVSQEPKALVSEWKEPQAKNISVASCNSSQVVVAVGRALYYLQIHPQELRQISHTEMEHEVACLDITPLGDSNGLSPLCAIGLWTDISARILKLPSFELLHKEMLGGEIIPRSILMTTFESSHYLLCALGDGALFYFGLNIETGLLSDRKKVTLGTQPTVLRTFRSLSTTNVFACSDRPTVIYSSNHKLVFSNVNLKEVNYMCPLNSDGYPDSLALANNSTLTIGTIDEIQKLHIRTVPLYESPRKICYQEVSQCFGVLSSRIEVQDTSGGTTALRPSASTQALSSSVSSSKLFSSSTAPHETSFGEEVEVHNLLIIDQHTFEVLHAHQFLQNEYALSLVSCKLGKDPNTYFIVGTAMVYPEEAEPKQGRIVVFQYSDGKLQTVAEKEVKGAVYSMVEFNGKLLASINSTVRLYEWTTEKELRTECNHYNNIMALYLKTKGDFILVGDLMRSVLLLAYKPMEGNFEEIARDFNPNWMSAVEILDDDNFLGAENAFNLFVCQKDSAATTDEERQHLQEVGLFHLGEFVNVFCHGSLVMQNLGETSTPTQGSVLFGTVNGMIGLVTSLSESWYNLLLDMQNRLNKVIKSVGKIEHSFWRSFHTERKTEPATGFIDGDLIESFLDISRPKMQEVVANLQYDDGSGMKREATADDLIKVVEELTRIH
T2 sequence (P48729 whole entry): as the sequence (P48729 whole entry) above
T2 sequence (Q96SW2 whole entry): as the sequence (Q96SW2 whole entry) above
T2 sequence (Q16531 2-1140 partner limits assumed): as the sequence (Q16531 2-1140 partner limits assumed) above

SMILES	DC50 (CK1α) [µM]	CK1a levels in cereblon (CRBN) knock-out HEK293 cell line (Western blot, FIG. 1) (CK1a; HEK293 CRBN knock-out cell line)	CK1a levels in HEK293 cell line (Western blot, FIG. 1) (CK1a; HEK293 cell line, cereblon present)	GI50 (SKCO1) [nM]	GI50 (GP2D) [nM]	GI50 (LS174T) [nM]
O=C1CCC(N2Cc3cc(NC(=O)c4ccc(Cl)cc4)ccc3C2=O)C(=O)N1 (stereo not shown) [Compound 147]	< 0.1	no effect on CK1a levels	decreases CK1a levels	100 to 1000	> 1000	> 1000
O=C1CCC(N2Cc3cc(NC(=O)c4ncn(-c5ccccc5)c4C(F)(F)F)ccc3C2=O)C(=O)N1 (stereo not shown) [Compound 154, N-(2-(2,6-dioxopiperidin-3-yl)-1-oxoisoindolin-5-yl)-1-phenyl-5-(trifluoromethyl)-1H-imidazole-4-carboxamide]	< 0.1	–	–	< 100	100 to 1000	100 to 1000
